In patent US10975056B2 (GlaxoSmithKline Intellectual Property Development Limited, priority 2016, dated 2021):
Values joined by “and” are separate entries in the source; they are usually repeats but may differ in a detail not shown here. Equal entries are not always repeated. Where two headings read alike, the source gives them in different places.

How the values were obtained:
DNMT1 = DNMT1 (Homo sapiens, UniProt P26358); experiment: DNMT1 biochemical activity, breaklight assay and/or SPA assay
[1] = system: erythroid progenitor cells (EPCs); experiment: Fetal hemoglobin (HbF) ELISA in day 7 erythroid progenitor cells; type: cell-based, human; conditions: Homo sapiens, Erythroid progenitor cell, HbF ELISA, day 7 EPCs, 5 days; read-out: EPC ELISA (pEC50 category) (converted);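 also: for fetal hemoglobin induction normalized to vehicle-treated cells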
Procedure, shortened: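 HbF induction was read by anti-HbF sandwich ELISA (HRP/TMB, OD450) on lysates and normalized to vehicle-treated cells. Cells were day 7 erythroid progenitors derived from human bone marrow CD34+ cells, seeded at 1,000/well with 3 U/mL rhEPO. Compound was given for 5 days at 37 °C at final concentrations […].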

[2] = binned activity in either the breaklight or the SPA assay
[3] = binned activity in either the breaklight or the SPA assay, read-out: DNMT1 BioChemical (pIC50 category) (converted)
[4] = breaklight assay and/or SPA assay, repeated experimental runs, read-out: average pIC50 against DNMT1 (converted)

Chain of DNMT1 (P26358 whole entry, looked up): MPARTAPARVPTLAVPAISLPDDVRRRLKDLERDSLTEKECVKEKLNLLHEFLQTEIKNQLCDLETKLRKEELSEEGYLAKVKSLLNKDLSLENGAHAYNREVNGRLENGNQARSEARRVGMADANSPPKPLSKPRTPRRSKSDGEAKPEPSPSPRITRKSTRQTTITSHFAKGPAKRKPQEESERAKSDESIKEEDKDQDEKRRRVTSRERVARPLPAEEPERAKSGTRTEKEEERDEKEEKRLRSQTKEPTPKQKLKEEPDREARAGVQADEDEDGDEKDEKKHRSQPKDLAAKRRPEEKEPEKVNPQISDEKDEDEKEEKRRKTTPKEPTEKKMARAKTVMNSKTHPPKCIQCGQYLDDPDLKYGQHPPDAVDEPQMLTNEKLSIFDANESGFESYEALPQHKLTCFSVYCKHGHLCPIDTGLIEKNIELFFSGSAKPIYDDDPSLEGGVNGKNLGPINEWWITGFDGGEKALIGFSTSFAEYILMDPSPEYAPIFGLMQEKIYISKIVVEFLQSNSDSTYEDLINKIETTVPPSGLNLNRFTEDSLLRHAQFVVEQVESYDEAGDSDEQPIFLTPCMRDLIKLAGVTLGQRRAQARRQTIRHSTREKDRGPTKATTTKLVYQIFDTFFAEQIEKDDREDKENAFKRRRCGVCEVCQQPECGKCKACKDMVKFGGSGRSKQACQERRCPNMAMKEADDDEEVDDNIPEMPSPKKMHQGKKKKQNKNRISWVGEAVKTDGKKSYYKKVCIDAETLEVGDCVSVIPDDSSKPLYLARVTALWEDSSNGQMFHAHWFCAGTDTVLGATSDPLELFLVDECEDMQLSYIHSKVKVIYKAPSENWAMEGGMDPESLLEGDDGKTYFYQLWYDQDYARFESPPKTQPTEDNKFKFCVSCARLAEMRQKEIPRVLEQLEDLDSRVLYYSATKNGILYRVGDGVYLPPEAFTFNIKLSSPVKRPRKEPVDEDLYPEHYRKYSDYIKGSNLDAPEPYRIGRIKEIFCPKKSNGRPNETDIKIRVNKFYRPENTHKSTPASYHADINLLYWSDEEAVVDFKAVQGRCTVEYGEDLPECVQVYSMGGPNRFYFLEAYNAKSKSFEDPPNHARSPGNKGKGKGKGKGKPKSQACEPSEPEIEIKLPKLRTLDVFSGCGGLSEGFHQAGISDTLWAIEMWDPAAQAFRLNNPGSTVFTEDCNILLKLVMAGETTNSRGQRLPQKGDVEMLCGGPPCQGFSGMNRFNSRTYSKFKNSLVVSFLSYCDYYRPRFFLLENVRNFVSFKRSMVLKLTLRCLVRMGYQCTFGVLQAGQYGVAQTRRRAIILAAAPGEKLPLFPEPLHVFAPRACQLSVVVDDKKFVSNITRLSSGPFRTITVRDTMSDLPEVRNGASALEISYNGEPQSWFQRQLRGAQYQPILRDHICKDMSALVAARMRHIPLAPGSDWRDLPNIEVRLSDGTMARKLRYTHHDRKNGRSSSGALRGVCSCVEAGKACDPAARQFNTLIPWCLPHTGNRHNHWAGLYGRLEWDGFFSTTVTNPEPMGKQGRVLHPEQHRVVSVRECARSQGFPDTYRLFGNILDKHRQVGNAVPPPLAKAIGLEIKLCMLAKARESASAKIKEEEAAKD

DNMT1 BioChemical (pIC50 category) (DNMT1; [2])	EC50 [1] [nM]	IC50 (DNMT1; [3]) [nM]	SMILES	IC50 (DNMT1; [4])	average pIC50 against DNMT1 (DNMT1; breaklight assay and/or SPA assay, repeated experimental runs)
D (Category D: ≥6.5)	316 to 1000	–	CCc1c(C#N)c(SC(C(N)=O)c2ccccc2)nc(N2CC(N)C2)c1C#N (stereo not drawn) [Example 281, 2-((6-(3-Aminoazetidin-1-yl)-3,5-dicyano-4-ethylpyridin-2-yl)thio)-2-phenylacetamide]	–	–
–	> 31600	316 to 1000	CCc1c(C#N)c(SCc2ccc(CNC(=O)Nc3ccccc3)cc2)nc(N2CCCN(C)CC2)c1C#N [Example 100, 1-(4-(((3,5-Dicyano-4-ethyl-6-(4-methyl-1,4-diazepan-1-yl)pyridin-2-yl)thio)methyl)benzyl)-3-phenylurea]	–	–
–	1000 to 31600	316 to 1000	CCc1c(C#N)c(C)nc(SC(C(N)=O)c2ccccc2)c1C#N (stereo not drawn) [Example 283, 2-((3,5-Dicyano-4-ethyl-6-methylpyridin-2-yl)thio)-2-phenylacetamide]	316 to 1000 nM and 631 nM	–
–	> 31600	316 to 1000	CN(C)c1nc(SC(C(N)=O)c2ccncc2)c(C#N)c(C2CC2)c1C#N (stereo not drawn) [Example 26, 2-((3,5-dicyano-4-cyclopropyl-6-(dimethylamino)pyridin-2-yl)thio)-2-(pyridin-4-yl)acetamide]	–	–
D (Category D: ≥6.5)	< 316	–	CCc1c(C#N)c(SC(C(N)=O)c2ccccc2)nc(N2CCC(N3CCCC3)CC2)c1C#N (stereo not drawn) [Example 411, 2-((3,5-Dicyano-4-ethyl-6-(4-(pyrrolidin-1-yl)piperidin-1-yl)pyridin-2-yl)thio)-2-phenylacetamide]	–	–
D (Category D: ≥6.5)	316 to 1000	–	COc1c(C#N)c(SC(C(N)=O)c2ccccc2)nc(N(C)C)c1C#N (stereo not drawn) [Example 191, 2-((3,5-Dicyano-6-(dimethylamino)-4-methoxypyridin-2-yl)thio)-2-phenylacetamide]	–	–
D (Category D: ≥6.5)	> 31600	–	CCc1c(C#N)c(SCc2ccc(CNC(=O)CNC)cc2)nc(N2CCCN(C)CC2)c1C#N [Example 358, N-(4-(((3,5-Dicyano-4-ethyl-6-(4-methyl-1,4-diazepan-1-yl)pyridin-2-yl)thio)methyl)benzyl)-2-(methylamino)acetamide]	–	–
–	1000 to 31600	316 to 1000	CCc1c(C#N)c(SCc2ccc(N(C)C(C)=O)cc2)nc(N2CCCN(C)CC2)c1C#N [Example 354, N-(4-(((3,5-Dicyano-4-ethyl-6-(4-methyl-1,4-diazepan-1-yl)pyridin-2-yl)thio)methyl)phenyl)-N-methylacetamide]	–	–
D (Category D: ≥6.5)	< 316	–	CCc1c(C#N)c(SC(C(N)=O)c2ccc(F)cc2F)nc(N2CCC(N(C)C)CC2)c1C#N (stereo not drawn) [Example 210, 2-((3,5-Dicyano-6-(4-(dimethylamino)piperidin-1-yl)-4-ethylpyridin-2-yl)thio)-2-(2,4-difluorophenyl)acetamide]	–	–
D (Category D: ≥6.5)	316 to 1000	–	CCc1c(C#N)c(SC(C(N)=O)c2ccccc2)nc(N2CCC(OCCOC(=O)[C@@H](N)C(C)C)CC2)c1C#N (stereo partly drawn) [Example 153, (2S)-2-((1-(6-((2-Amino-2-oxo-1-phenylethyl)thio)-3,5-dicyano-4-ethylpyridin-2-yl)piperidin-4-yl)oxy)ethyl 2-amino-3-methylbutanoate]	–	–
D (Category D: ≥6.5)	< 316	–	CCc1c(C#N)c(SCc2ccc(CNC(=O)CN)cc2)nc(N(C)CCN(CC)CC)c1C#N [Example 520, 2-amino-N-(4-(((3,5-dicyano-6-((2-(diethylamino)ethyl)(methyl)amino)-4-ethylpyridin-2-yl)thio)methyl)benzyl)acetamide]	–	–
–	> 31600	316 to 1000	N#Cc1c(N2CCCNCC2)nc(SC(C(N)=O)c2ccccc2)c2c1CCC2 (stereo not drawn) [Example 171, 2-((4-Cyano-3-(1,4-diazepan-1-yl)-6,7-dihydro-5H-cyclopenta[c]pyridin-1-yl)thio)-2-phenylacetamide]	–	–
D (Category D: ≥6.5)	316 to 1000	–	CCc1c(C#N)c(S[C@@H](C(N)=O)c2ccccc2)nc(N2CC[C@H](NC(=O)OC(C)(C)C)[C@H](O)C2)c1C#N [Example 537, tert-butyl ((3R,4S)-1-(6-(((R)-2-amino-2-oxo-1-phenylethyl)thio)-3,5-dicyano-4-ethylpyridin-2-yl)-3-hydroxypiperidin-4-yl)carbamate]	–	–
D (Category D: ≥6.5)	< 316	–	CCc1c(C#N)c(SC(C(N)=O)c2ccccc2)nc(N2CCC(NCc3cccc(OC)n3)CC2)c1C#N (stereo not drawn) [Example 456, 2-((3,5-dicyano-4-ethyl-6-(4-(((6-methoxypyridin-2-yl)methyl)amino)piperidin-1-yl)pyridin-2-yl)thio)-2-phenylacetamide]	–	–
D (Category D: ≥6.5)	< 316	–	CCc1c(C#N)c(SCc2ccc(N(C)S(C)(=O)=O)cc2)nc(N(C)CCN2CCCC2)c1C#N [Example 570, N-(4-(((3,5-dicyano-4-ethyl-6-(methyl(2-(pyrrolidin-1-yl)ethyl)amino)pyridin-2-yl)thio)methyl)phenyl)-N-methylmethanesulfonamide]	–	–
D (Category D: ≥6.5)	1000 to 31600	–	CCc1c(C#N)c(SC(C(N)=O)c2ccccc2)nc(N2CCN(CCO)C(=O)C2)c1C#N (stereo not drawn) [Example 504, 2-((3,5-dicyano-4-ethyl-6-(4-(2-hydroxyethyl)-3-oxopiperazin-1-yl)pyridin-2-yl)thio)-2-phenylacetamide]	–	–
D (Category D: ≥6.5)	< 316	–	CCc1c(C#N)c(SC(C(N)=O)c2ccccc2)nc(N2CCC3(CCN(C)C3)CC2)c1C#N (stereo not drawn) [Example 215, 2-((3,5-Dicyano-4-ethyl6-(2-methyl-2,8-diazaspiro[4.5]decan-8-yl)pyridin-2-yl)thio)-2-phenylacetamide]	–	–
D (Category D: ≥6.5)	> 31600	–	CCc1c(C#N)c(SCc2ccc(CNC(=O)CCN)cc2)nc(N2CCCN(C)CC2)c1C#N [Example 96, 3-Amino-N-(4-(((3,5-dicyano-4-ethyl-6-(4-methyl-1,4-diazepan-1-yl)pyridin-2-yl)thio)methyl)benzyl)propanamide]	–	–
D (Category D: ≥6.5)	1000 to 31600	–	CCc1c(C#N)c(S[C@H](C)c2ccc(N(C)S(C)(=O)=O)cc2)nc(N2CCC(N)CC2)c1C#N (single isomer, unassigned) [Example 681, N-(4-(1-((6-(4-aminopiperidin-1-yl)-3,5-dicyano-4-ethylpyridin-2-yl)thio)ethyl)phenyl)-N-methylmethanesulfonamide]	–	–

SMILES	DNMT1 BioChemical (pIC50 category) (DNMT1; [2])	EC50 [1] [nM]	IC50 (DNMT1; [3]) [nM]	IC50 (DNMT1; [4])	average pIC50 against DNMT1 (DNMT1; breaklight assay and/or SPA assay, repeated experimental runs)
CCc1c(C#N)c(S[C@@H](C(N)=O)c2ccccc2)nc(N2CC[C@H](N)[C@H](F)C2)c1C#N [Example 509, (R)-2-((6-((3R,4S)-4-amino-3-fluoropiperidin-1-yl)-3,5-dicyano-4-ethylpyridin-2-yl)thio)-2-phenylacetamide • (0.67)2,2,2-trifluoroacetate • (0.33)methanesulfonate]	D (Category D: ≥6.5)	< 316	–	–	–
CCc1c(C#N)c(SC(C(N)=O)c2ccccc2)nc(N2CCOC(CN)C2)c1C#N (stereo not drawn) [Example 562, 2-((6-(2-(aminomethyl)morpholino)-3,5-dicyano-4-ethylpyridin-2-yl)thio)-2-phenylacetamide]	D (Category D: ≥6.5)	< 316	–	79.4 nM	> 6.5
